Values after ≈ are worked out from the molar mass of the structure shown. Values joined by “and” are separate entries in the source; they are usually repeats but may differ in a detail not shown here. Identical values can stand only once. Like-named read-outs stand apart in the source and are kept apart here.
Key:
[1] = Solubility of sulfasalazine, Form A meglumine salt and pharmaceutical compositions (HPLC); assay type: physicochemical
Method: The mobile phase consists of mobile phase (A): 1.13 g sodium dihydrogen phosphate and 2.5 g sodium acetate are dissolved in 1000 mL purified water. The pH is afterwards adjusted with acetic acid (100%) to 4.8. and mobile phase (B): 1 part mobile phase A is mixed with 4 parts of methanol for chromatography. The flow rate was 1.0 mL/min, injection volume 5 μL and detection wavelengths 320 nm (HP DAD series 1100). Run time is 10 min. Quantitation was performed using external standard methodology. The assay method has been validated with respect to selectivity, repeatability and linearity. Samples are prepared with dilute ammonia R3 PhEur.
The saturated solutions were filtrated using centrifuge filters (Nylon, […]) and the clear supernatants were respectively injected either directly or after dilution with dilute ammonia R3 PhEur.
The resulting solution is further diluted with phosphate buffer (pH 6.8) to 1% v/v solution prior. The resulting phosphate buffer solution is diluted with dilute ammonia R3 prior to injection.

[2] = cited from earlier work
[3] = cited from earlier work; remark: listed apart in the source
[4] = system: binding of TNF-alpha to its receptor; conditions: 125I-TNF-alpha displacement; cited from earlier work
in vitro = conditions: human, Caco-2
physchem = conditions: de-ionized water, 24 °C
Water vapor uptake (GVS) = assay type: physicochemical

## O=C(O)c1cc(N=Nc2ccc(S(=O)(=O)Nc3ccccn3)cc2)ccc1O [sulfasalazine, 2-hydroxy-5-[2-[4-[(2-pyridinylamino)sulfonyl]phenyl]diazenyl]-benzoic acid]
[1]; pH 5.9, thermodynamic from solid, water, room temperature, read-out: Solubility (mg/mL) Water
  solubility at 24 h: 0.06 mg/mL
[1]; pH 6.3, thermodynamic from solid, FaSSIF-V2 medium, room temperature (20-25° C.), saturated solution, read-out: Solubility (mg/mL) FaSSIF-V2
  solubility at 24 h: 0.78 mg/mL
[2]; 24° C., literature value
  solubility in de-ionized water at 24° C.: 0.03 mg/mL and 0.031 mg/mL
[2]; USP classification
  solubility class according to United States Pharmacopoeia (practically insoluble): < 0.1 mg/mL
[2]; water
  solubility in water: less than 5 mg/100 ml
[3]; intravenously administered
  half-life: approximately 7.6±3.6 hours
[3]; man, oral
  median peak concentration (time): 6 h
[4]
  binding of TNF-alpha to its receptor: inhibits
In vitro
  Papp A→B at 180 min, 200 μg/mL: 1.16 ×10⁻⁶ cm/s
  Papp A→B at 180 min, 2000 μg/mL: 0.81 ×10⁻⁶ cm/s
  Papp B→A at 180 min, 200 μg/mL: 4.76 ×10⁻⁶ cm/s
  Papp B→A at 180 min, 2000 μg/mL: 2.79 ×10⁻⁶ cm/s
physchem
  solubility: 60 µg/mL (≈ 151 µM)

## CCNCC.O=C(O)c1cc(N=Nc2ccc(S(=O)(=O)Nc3ccccn3)cc2)ccc1O [Form A diethylamine salt, diethylamine 2-hydroxy-5-[2-[4-[(2-pyridinylamino)sulfonyl]phenyl]diazenyl]-benzoate, crystal Form A]
Water vapor uptake (GVS)
  water vapor uptake (GVS; % w/w) at 30% RH: 0.3 % w/w
  water vapor uptake (GVS; % w/w) at 80% RH: 0.5 % w/w

## C1CNCCN1.O=C(O)c1cc(N=Nc2ccc(S(=O)(=O)Nc3ccccn3)cc2)ccc1O [Form A piperazine salt, piperazine 2-hydroxy-5-[2-[4-[(2-pyridinylamino)sulfonyl]phenyl]diazenyl]-benzoate, crystal Form A]
Water vapor uptake (GVS)
  water vapor uptake (GVS; % w/w) at 30% RH: 0.4 % w/w
  water vapor uptake (GVS; % w/w) at 80% RH: 0.9 % w/w

## Nc1ccc(S(=O)(=O)Nc2ccccn2)cc1 [sulfapyridine]
[3]; metabolite formed from non-absorbed sulfasalazine by gut flora
  systemic bioavailability: about 60%

## CNCC(O)C(O)C(O)C(O)CO.O=C(O)c1cc(N=Nc2ccc(S(=O)(=O)Nc3ccccn3)cc2)ccc1O [Form A meglumine salt, D(−)-N-methylglucamine 2-hydroxy-5-[2-[4-[(2-pyridinylamino)sulfonyl]phenyl]diazenyl]-benzoate, crystal Form A]
[1]; FaSSIF-V2 medium, room temperature (20-25° C.), saturated solution
  Solubility (mg/mL) FaSSIF-V2: 15.3 mg/mL
[1]; water, diluted in phosphate Buffer pH 6.8
  Solubility (mg/mL) Water: 60.3 mg/mL
[1]; water, room temperature
  Solubility (mg/mL) Water: 104.8 mg/mL
Water vapor uptake (GVS); listed as 4.1
  water vapor uptake (GVS; % w/w) at 30% RH: < 0.4 % w/w
  water vapor uptake (GVS; % w/w) at 80% RH: < 0.9 % w/w
Water vapor uptake (GVS); listed as 4.2
  water vapor uptake (GVS; % w/w) at 30% RH: 0.4 % w/w
Water vapor uptake (GVS)
  water vapor uptake (GVS; % w/w) at 80% RH: 1.1 % w/w
other
  solubility in de-ionized water at 24° C. and pH 6.6: > 54 mg/mL

— patent US12274706B2 (MEDAC GESELLSCHAFT FUER KLINISCHE SPEZIALPRAEPARATE MBH, priority 2017, dated 2025)
